Data set [1] is described as follows: Complexing with protein in human serum. The data set is classed as in vitro ADME. Conditions: human sera, unpublished data.
The subject of a further data set is HO-1 mRNA. Description: qRT-PCR of HO-1 mRNA in lumbar spinal cord of wild type mice. It is filed as in vivo, mouse (C57BL/6N). Conditions: 100 µg/kg oral, 3 h post-administration. As for the experimental part:
Wild type mice at 8 weeks of age (male, C57BL/6N) were administered per os with either vehicle (physiological saline) or WN1316 (100 µg/kg body weight). After 1 h, 3 h, 6 h and 9 h, mice were transcardially perfused with physiological saline containing 10% heparin under anesthesia with 2% isoflurane by inhalation, and the lumbar spinal cord was dissected. Total RNA was extracted from lumbar spinal cord using Sepasol-RNA I Super G (Nacalai Tesque), and purified by SV Total RNA Isolation System (Promega) according to manufacturer's instructions. qRT-PCR was performed with QuantiFast™ SYBR Green RT-PCR Kit (QIAGEN) on CFX96 (BIO RAD). The PCR primers (QuantiTect Primer Assays) for HO-1 (Mm_Hmox1_1_SG) and PPIA (Mm_Ppia_1_SG) were purchased from QIAGEN. The levels of all transcripts were normalized for the PPIA mRNA level in each sample. Relative expression was calculated using the ΔΔCt method (Livak 2001).
For orientation: Quantitative PCR measures a nucleic acid by following its amplification.

The nature of data set [2]: Complexing with protein in rat serum. It is filed as in vitro ADME. Conditions: rat sera, unpublished data.
In the next data set the test system is ALS(SOD1^H46R) mice. Description: Histopathology, immunohistochemistry and Western blot of spinal cord, ventral root and muscle of treated ALS(SOD1^H46R) mice. The data set is classed as in vivo, mouse. Here is the method: At 21–22 weeks of age (late-symptomatic stage), mice were anesthetized with 2% isoflurane by inhalation. Anesthetized mice were transcardially perfused with physiological saline containing 10% heparin, followed by 4% paraformaldehyde (PFA) in 0.1 M phosphate buffer (PB) (pH 7.2). Spinal cord was removed, and lumbar segment was dissected.
For the preparation of paraffin-embedding tissue, lumbar segment was post-fixed with the same fixative for 48 h at 4°C and embedded in paraffin. Serial transverse sections (6 µm thickness) of lumbar segment (L4–L5) were sliced and stained with hematoxylin and eosin (H&E) for histopathological evaluation.
For the preparation of frozen-embedding tissue, lumbar segment was post-fixed with 4% PFA in 0.1 M PB (pH 7.2) for 24 h at 4°C, and then processed in 30% sucrose in 0.1 M PB (pH 7.2) containing 0.1% NaN3 for 96 h at 4°C (for cryoprotection) followed by frozen-embedding. Ten µm frozen sections were cut on a cryostat and used for fluorescent immunohistochemistry.
Immunohistochemical analyses with anti-ChAT, anti-Iba-1, anti-GFAP, anti-MAP2, anti-IL-1β and anti-8-OHdG antibodies were performed. For immunostaining with anti-ChAT antibody, the deparaffinized sections from late-symptomatic mice were pre-treated by autoclaving at 121°C for 5 min in HISTOFINE antigen retrieval solution (pH 9.0) (Nichirei). For immunostaining with anti-Iba-1 antibody, the deparaffinized sections from late-symptomatic mice were pre-treated by autoclaving at 121°C for 10 min in 10 mM citrate buffer (pH 6.0). For immunostaining with anti-GFAP antibody, the deparaffinized sections were used without any pretreatment. The sections were incubated with 0.3% H2O2 in methanol for 30 min and then with phosphate-buffered saline (PBS) (pH 7.2) containing 0.3% Triton X-100 for 30 min. After the treatment with PBS containing 5% normal goat serum (NGS) (Vector Laboratories)/0.05% Triton X-100 or 5% normal rabbit serum (NRS) (Vector Laboratories)/0.05% Triton X-100 for 1 h at room temperature, the sections were incubated with either anti-GFAP or anti-Iba-1 antibody in PBS containing 1.5% NGS/0.05% Triton X-100 or with anti-ChAT antibody in PBS containing 1.5% NRS/0.05% Triton X-100 overnight at 4°C. The sections were then incubated with HISTOFINE simple stain mouse MAX-PO (R) (Nichirei) or with HISTOFINE simple stain mouse MAX-PO (G) (Nichirei) for 1 hr at room temperature. The sections were visualized using 0.05% 3,3-diaminobenzidine tetrahydrochloride (DAB) (Wako) and 0.015% H2O2 in 50 mM Tris-HCl (pH 7.5) buffer, and the DAB reaction products were observed under a light microscope (BIOREVO BZ-9000, KEYENCE).
For double-immunostaining using frozen section, sections from late-symptomatic mice were washed with PBS, and treated with PBS containing 3% normal horse serum (NHS) (Vector Laboratories)/0.3% Triton X-100 for 1 h at room temperature. The sections were incubated with anti-IL-1β antibody in PBS containing 0.01% Triton X-100 for 48 h at 4°C, and then were incubated with CF^TM488A donkey anti-goat IgG (H+L) (1∶400, Biotium) in PBS containing 0.01% Triton X-100 for 1 h at room temperature. Next, the sections were incubated with anti-GFAP, anti-Iba-1 or anti-MAP2 antibody in PBS containing 0.01% Triton X-100 overnight at 4°C, and then were incubated with CF^TM555 goat anti-rabbit IgG (H+L) (1∶400, Biotium) in PBS containing 0.01% Triton X-100 for 1 h at room temperature. Fluorescent signals were observed under a light microscope (BIOREVO BZ-9000, KEYENCE).
For double-immunostaining of deparaffinized tissue, sections from late-symptomatic mice were pre-treated by autoclaving at 121°C for 10 min in 10 mM citrate buffer (pH 6.0). After the treatment with PBS containing 5%NGS/0.05% Triton X-100, the sections were incubated with anti-8-OHdG and anti-GFAP, anti-Iba-1 or anti-MAP2 antibodies in PBS containing 1.5% NGS/0.05% Triton X-100 overnight at 4°C. […]
(A western blot detects proteins with antibodies after separation by electrophoresis.)

The subject of the next data set is NAIP in THP-1 cells. The experiment in a line: Western blot of NAIP in THP-1 cells. The data set is classed as cell-based, human. To be noted: 1 to 16 µM, 24 h. As for the experimental part: Human monocytic leukemia cell line THP-1 (ATCC, TIB-202) was cultured in RPMI-1640 (Wako) supplemented with 10% fetal bovine serum, 100 U/ml penicillin, and 100 µg/ml streptomycin at 37°C in 5% CO2. Approximately 1×10^5 cells, which were pretreated with 1 to 16 µM WN1316 or DMSO in the presence or absence of 1 mM NAC for 24 h, were plated on a 96-well plate and exposed to 80 µM menadione for 16 h. Cell viability was measured by AlamarBlue assay. For Western blotting, cell lysates were prepared by using M-PER mammalian protein extraction reagent (Thermo scientific) according to standard procedure.

Counter-ions that a name gives are not always drawn.

For the compound `Cc1cc(C)c(N(C)CC(=O)Nc2nc(-c3ccccn3)c[nH]2)c(C)c1` [WN1316, 2-[mesityl(methyl)amino]-N-[4-(pyridin-2-yl)-1H-imidazol-2-yl] acetamide trihydrochloride], the “protein complexing in serum” value in data set [1] is “complexes with protein”. The “HO-1 mRNA in the lumbar spinal cord” value with HO-1 mRNA is given as “transient induction”. Moreover, the “protein complexing in serum” value in data set [2] was “complexes with protein”. For the same compound, in the data set with ALS(SOD1^H46R) mice (10 µg/kg, 21–22 weeks of age), the “DNA oxidation (8-OHdG) in lumbar spinal cord” value is “remarkable reduction”, the “IL-1β immunoreactivity in astrocytes” value is reported as “diminished dramatically”, the “iNOS generation in lumbar spinal cord (Western blot)” value is on record as “decreased” and the “large myelinated axons in the L5 ventral root” value was “preservation of large myelinated axons”. In the data set on ALS(SOD1^H46R) mice (10 µg/kg, 21–22 weeks of age, vs vehicle), the “GFAP and Iba-1 immunoreactivity in lumbar spinal cord anterior horn” value is listed as “significant reduction”. In addition, in the data set with ALS(SOD1^H46R) mice (10 µg/kg, vs vehicle, 21–22 weeks of age), the “protein levels of mutant SOD1 in NP-40-soluble and NP-40-insoluble/SDS-soluble fractions” value is recorded as “no significant differences”. In addition, in the data set with ALS(SOD1^H46R) mice (10 µg/kg/day, lumbar L4–L5, 21–22 weeks of age (vehicle 35.5%)), the “loss of ChAT-positive motor neurons compared with non-Tg littermates” value is recorded as 15.2%. Also, in the data set with ALS(SOD1^H46R) mice (21–22 weeks of age), the “skeletal muscle integrity (quadriceps femoris)” value was “preserved the skeletal muscle integrity”. The NAIP protein level entry in the data set with NAIP in THP-1 cells is “dose-dependent upregulation”.

The values above are taken from PMC3909264, “A Novel Acylaminoimidazole Derivative, WN1316, Alleviates Disease Progression via Suppression of Glial Inflammation in ALS Mouse Model” (PLoS ONE, 2014).
